The text below walks through data of patent US11246873B2, “Directed differentiation of oligodendrocyte precursor cells to a myelinating cell fate” (The Scripps Research Institute, priority 2011, dated 2022).

“Also recorded” adds a separate entry of the source.

The test system of one series is PLP induced EAE mice. Here is the method:
(A-E) SJL mice were immunized with proteolipid peptide (PLP) and pertussis toxin and monitored daily with scoring on the standard clinical EAE scale (0-5). Compounds were administered daily for the duration of the study in saline at 10 mg/kg via intra-peritoneal injection (0.1 ml), starting on the day of the appearance of clinical EAE symptoms (day 10). […] Mean clinical EAE score and standard error of mean (SEM) are shown for each study group.
FIG. 25. […] EAE was induced in mice using PLP and pertussis toxin. […] Prophylactic dosing is defined as administration of compound commenced on the day of PLP injection. Error bars indicate standard deviation of the mean within each group of 8 mice.
(A-F) EAE was induced in mice using PLP and pertussis toxin. […] Error bars indicate standard deviation of the mean within each group of 8 mice.
(A-F) EAE was induced in mice by injecting PLP in complete Freund's adjuvant (CFA) and pertussis toxin, and the animals were scored daily for clinical severity of disease on a scale of 0-5. […] Error bars indicate standard deviation of the mean within each group of 8-10 mice.
10 week old SJL mice were immunized with PLP emulsion and pertusis toxin to induce EAE. […] Compounds were administered daily via intraperitoneal injection of 100 ul in sterile saline at 10 mg/kg alone or in combination with mycophenolate motefil in sterile saline at pH 5 at 20 mg/kg. Compound administration was initiated at disease onset (day 10) while mycophenolate motefil administration was initiated on Day 14. The mice were scored daily on a standard EAE scale of 0-5.
This model is most commonly used to evaluate the potential efficacy of immunomodulatory agents, but can also be used to determine the effectiveness of promyelinating agents that function by enhancing OPC differentiation (M. Fernandez et al., Proc Natl Acad Sci U.S.A, 101, 16363 (2004); X. Lee et al., J Neurosci, 27, 220 (2007); reviewed in R. J. Franklin, C. Ffrench-Constant, Nat Rev Neurosci, 9, 839 (2008)). […] We next evaluated efficacy when the drug is dosed therapeutically, by starting daily injections at the first sign of disease onset.
For the treatment of MS, an OPC differentiation inducing drug would most likely be introduced clinically as part of a combination therapy with an immunosuppressive drug. […] The former reduces T-cell proliferation and alters cytokine expression (A. Noronha, A. Toscas, M. A. Jensen, J Neuroimmunol, 46, 145 (1993); A. Noronha, A. Toscas, M. A. Jensen, Ann Neurol, 27, 207 (1990)), while the latter is an S1P agonist that regulates T-cell trafficking (V. Brinkmann et al., J Biol Chem, 277, 21453 (2002); V. Brinkmann et al., Nat Rev Drug Discov, 9, 883 (2010)).

In series [1] the test system is rat optic nerve derived OPCs. As to the kind of experiment: High content imaging assay of OPC differentiation (MBP immunostaining, OPERA). The series is classed as cell-based. As to conditions: OPCs in differentiation medium (2 ng/ml PDGF), 6 days. Here is the method: FIG. 1A-C. […] The calculated EC50 values were determined using appropriate Graphpad Prism 5.0 curve fitting software. […] OPCs were plated in 384 well plates at 1000 cells per well in OPC media containing basal PDGF-αα (2 ng/mL) and treated with serial dilutions of compounds. Following six days of compound treatment, cells were fixed and subjected to immunofluorescence analysis using anti-myelin basic protein (MBP) antibody. Image acquisition and quantification of MBP staining was performed using the OPERA imaging system.
FIG. 11A-B. Screen to identify inducers of OPC differentiation. (A) OPCs were maintained as proliferating A2B5-positive cells under basal growth conditions (Neurobasal medium, B27 supplement without Vitamin A, non-essential amino acids, L-Glutamine, 30 ng/ml PDGF). OPCs were plated in basal differentiation media (Neurobasal medium, B27 supplement without Vitamin A, non-essential amino acids, L-Glutamine, 2 ng/ml PDGF), treated with DMSO (<0.1%) or thyroid hormone (1 uM), fixed after 6 days in culture, and stained using antibodies for CNP, O4, or MBP. […] (B) Screen strategy using A2B5 positive OPCs cultured under basal differentiation conditions and treated with compounds for 6 days to identify small molecules that induce the differentiation of OPCs to mature, MBP expressing oligodendrocytes.
FIG. 12A-B. Primary hit confirmation. (A) Dose response assay used to confirm primary screening hits and determine potency (EC50). (EC50) is defined as the concentration that results in a half maximal increase in the percentage of total cells that express MBP as detected by immunostaining. […] Cells were fixed and immunostained using antibodies for MBP. Error bars represent standard deviations from 3 replicate experiments. […]
FIG. 21. […] OPCs were plated in differentiation medium (2 ng/ml PDGF) and treated with various concentrations of compounds for 6 days. Cells were fixed and immunostained for MBP.
A large-scale small molecule screen was conducted to identify small molecules that promote the differentiation of oligodendrocyte precursor cells (OPCs) to a mature myelinating fate. High content imaging was used to detect in-well differentiation of rat optic nerve derived OPCs. Rat optic nerve derived OPCs were expanded en masse in OPC media containing 30 ng/mL PDGFαα. To screen for small molecule inducers of OPC differentiation, OPCs (cultured for fewer than 15 passages) were plated in poly-D-lysine coated 384 well culture plates in OPC Media containing 2 ng/mL PDGFαα and immediately treated with compounds at a final concentration of 6 μM (0.6% DMSO). Compound treated cells were incubated at 37° C., 5% CO2 for 6 days. At the end of 6 days, cells were fixed in 4% paraformaldehyde and subjected to immunofluorescence analysis. Anti-Myelin Basic Protein monoclonal antibody (a.a. 129-138, clone 1 monoclonal antibody, Millipore) (1:1000 dilution) in blocking buffere solution (3% BSA, 0.3% Triton X-100 in PBS) was added to fixed and washed cells and incubated at 4° C. overnight.

The test system of series [2] is OPCs. As to the kind of experiment: qRT-PCR of MBP and MOG expression in compound treated OPCs. The series is classed as cell-based, rat. To be noted: EC90 concentrations, 6 days. An excerpt:
FIG. 2A-C. […] (A) Western blot analysis of OPCs treated with compounds at EC90 concentrations for 6 days. Total protein was isolated from cell pellets and probed for myelin basic protein (MBP) and myelin oligodendrocyte glycoprotein (MOG) using specific antibodies. (B-C) Quantitative RT-PCR (qRT-PCR) analysis of OPCs treated with compounds at EC90 concentrations for 6 days. Total RNA was isolated from cell pellets and reverse transcribed. MBP and MOG expression was quantified using specific probes and Taqman-based qRT-PCR. Expression was normalized to the internal controls β-actin and GAPDH. Fold change in gene expression over DMSO treated control cells is plotted for MBP (B) and MOG (C).
On the technique in general: Real-time PCR tracks product formation cycle by cycle.

Series [3] has as its system OPCs. As to the kind of experiment: Immunofluorescence analysis of mature oligodendrocyte markers (MBP, MOG, CNP, GalC, O1, O4). The series is classed as cell-based, rat. To be noted: OPCs treated 6 days. An excerpt:
FIG. 3. Immunofluorescence analysis of compound treated OPCs using mature oligodendrocyte specific markers. Immunofluorescence staining using specific antibodies for MBP, MOG, and 2′,3′-cyclic nucleotide 3′ phosphodiesterase (CNP). Nuclei were identified using DAPI.
FIG. 4. Immunofluorescence analysis of compound treated OPCs using mature oligodendrocyte specific markers. Immunofluorescence staining using specific antibodies for galactocereberoside (GalC), oligodendrocyte marker O1 (O1) and oligodendrocyte marker O4 (O4). Nuclei were identified using DAPI.
FIG. 14. Compound treatment induces the differentiation of OPCs to mature oligodendrocytes. […] Cells were fixed and immunostained for MBP, MOG, CNP, GalC, O1, or O4.
Immunofluorescence was also used to confirm that the hits were able to induce oligodendrocyte maturation.

The test system of series [4] is OPCs. As to the kind of experiment: Western blot of MBP and MOG in compound treated OPCs. As to conditions: OPCs treated 6 days. The series is classed as cell-based, rat. An excerpt: FIG. 2A-C. Neurotransmitter receptor modulating agents induce the differentiation of OPCs to a myelinating oligodendrocyte cell fate. (A) Western blot analysis of OPCs treated with compounds at EC90 concentrations for 6 days. Total protein was isolated from cell pellets and probed for myelin basic protein (MBP) and myelin oligodendrocyte glycoprotein (MOG) using specific antibodies. (B-C) Quantitative RT-PCR (qRT-PCR) analysis of OPCs treated with compounds at EC90 concentrations for 6 days. Total RNA was isolated from cell pellets and reverse transcribed. MBP and MOG expression was quantified using specific probes and Taqman-based qRT-PCR. Expression was normalized to the internal controls β-actin and GAPDH. Fold change in gene expression over DMSO treated control cells is plotted for MBP (B) and MOG (C).
FIG. 13. […] After 6 days in culture, cells were analyzed for MBP and MOG expression by Western blot.

The test system of another series is muscarinic receptor. As to the kind of experiment: Carbachol co-treatment in compound induced OPC differentiation (MBP staining). The series is classed as cell-based, rat. To be noted: compounds at EC90 (benztropine 2.3 uM), serial dilutions of carbachol, 6 days. Here is the method:
Following 6 days of treatment, cells were fixed and stained for MBP. Plates were imaged using the OPERA high content screening system and MBP staining was quantified as described. […] OPCs were plated in 384-well plates at 5000 cells per well in media containing basal PDGF-αα. Cells were equilibrated with Ca^2+ sensitive Fluo-3AM® dye in HBSS for 30 min. […] Ca^2+ influx was immediately measured using the FLIPR TETRA® system.
OPCs express mAChRs, predominantly subtypes M1, M3, and M5 (F. Ragheb et al., J Neurochem, 77, 1396 (2001)). […] Activation of M1 and M3 mAChRs is coupled to downstream signal transduction events through phospholipase C, which results in increased intracellular calcium concentrations (F. Ragheb et al., J Neurochem, 77, 1396 (2001)) (FIG. 23C). M2 and M4 mAChR activation inhibits adenylatecyclase, leading to decreased intracellular cAMP levels (C. C. Felder, FASEB J, 9, 619 (1995); M. Lopez-Ilasaca et al., Science, 275, 394 (1997)). […] Acetylcholine is a known regulator of OPC proliferation and, as such, muscarinic receptor subtypes represent a reasonable class of therapeutic targets for the modulation of OPC proliferation and differentiation (F. De Angelis et al., Dev Neurobiol, (2011)).

As to `CCCCCCCCc1ccc(CCC(N)(CO)CO)cc1` [FTY720, fingolimod], the “maximal observed tolerated dose” value in the series with PLP induced EAE mice (EAE mice) is given as around 1 mg/kg.

In the case of `CN1[C@@H]2CC[C@H]1C[C@@H](OC(=O)C(CO)c1ccccc1)C2` (stereo partly shown) [atropine], in series [1], the “induction of OPC differentiation (MBP staining)” value (shortened to “induction of OPC differentiation”) was “induce OPC differentiation; also recorded: induced OPC differentiation in a dose dependent manner; also recorded: induced differentiation of OPCs in a dose dependent manner”.

As for `CN1CCC[C@@H]1CCO[C@](C)(c1ccccc1)c1ccc(Cl)cc1` [clemastine], in the series with OPCs [2], the “induction of MBP expression (qRT-PCR) over DMSO” value is listed as “two-fold” and the “induction of MOG expression (qRT-PCR) over DMSO” value is on record as “two-fold”. In addition, the “markers of mature myelinating oligodendrocytes (MBP, MOG, CNP, GalC, O1, O4) by immunofluorescence” value with OPCs [3] was “confirmed the presence of multiple markers of mature myelinating oligodendrocytes”. Besides, the “MBP and MOG expression (Western blot)” value in the series on OPCs [4] was “positive”. Further, the “effect of carbachol on compound induced OPC differentiation” value in the series with muscarinic receptor was “inhibited; also recorded: dose dependent inhibition”. Also, in series [1], the “induction of OPC differentiation” value is recorded as “promote OPC differentiation”.

With `CC(C)[N+]1(C)[C@@H]2CC[C@H]1C[C@@H](OC(=O)C(CO)c1ccccc1)C2` (stereo partly shown) [ipratropium], the “induction of OPC differentiation” value in series [1] was “induce OPC differentiation; also recorded: induced OPC differentiation in a dose dependent manner; also recorded: induced differentiation of OPCs in a dose dependent manner”.

Consider `CCN(CC)CC#CCOC(=O)C(O)(c1ccccc1)C1CCCCC1` (stereo not shown) [oxybutynin], for which, in series [1], the “induction of OPC differentiation” value was “induced OPC differentiation in a dose dependent manner; also recorded: induced differentiation of OPCs in a dose dependent manner”.

As to `CCCOC(C(=O)OC1CCN(C)CC1)(c1ccccc1)c1ccccc1` [propiverine], the “induction of OPC differentiation” value in series [1] is given as “induced OPC differentiation in a dose dependent manner; also recorded: induced differentiation of OPCs in a dose dependent manner”.

Regarding `CC(C)(C)NCC(O)c1ccc(O)c(CO)c1` (stereo not shown) [salbutamol], in the series on PLP induced EAE mice (compounds 10 mg/kg i.p. daily from first EAE symptoms, mycophenolate 20 mg/kg from day 14), the “clinical severity versus vehicle, dosing after disease onset (therapeutic mode)” value was “significantly decreased clinical severity in the relapse phase”.

With `CN1[C@@H]2C[C@@H](OC(=O)[C@H](CO)c3ccccc3)C[C@H]1[C@@H]1O[C@@H]12` [scopolamine], the “induction of OPC differentiation” value in series [1] was “induced OPC differentiation in a dose dependent manner; also recorded: induced differentiation of OPCs in a dose dependent manner”.

For `N[C@@H](Cc1cc(I)c(Oc2ccc(O)c(I)c2)c(I)c1)C(=O)O` [thyroid hormone, triiodothryonine], the “markers of mature myelinating oligodendrocytes (MBP, MOG, CNP, GalC, O1, O4) by immunofluorescence” value in the series with OPCs [3] is “expression of mature oligodendrocyte markers”. In addition, the “induction of OPC differentiation” value is listed as “induces the differentiation of OPCs into mature oligodendrocytes that express MBP” in series [1] and “results in the differentiation of OPCs to MBP positive oligodendrocytes” in series [1] (listed as T3).
